Results as given in patent publication US20050272824A1, “Methods for monitoring combretastatin resistance” (priority 2004, published 2005).
Entries after “also recorded” stand apart in the source; their conditions may differ. Where two headings read alike, the source gives them in different places.

What was measured:
NCI-H460 = experiment: In vitro cytotoxicity (modified MTT) assay, H460 parental; assay type: cell-based, human; settings: MTT after 48 h
Description: (§1) A panel of cells lines obtained from American Type Culture Collection (Rockville, Md., USA) was initially assayed against CA-4 to screen for drug sensitivity. The human non-small cell lung carcinoma (NSCLC), NCI-H460, was selected for resistance based on significant cytotoxicity. H460 cells were grown and maintained in RPMI-1640 supplemented with penicillin-streptomycin, Fungizone® and 10% heat inactivated fetal bovine serum (Invitrogen, Carlsbad, Calif., USA) and maintained at 37° C. humidified 5% CO2 atmosphere. H460 parental cell line was selected for resistance to CA-4, paclitaxel or vinblastine by incubation with stepwise increments of each drug, beginning at 2 nM. Cells were treated with the drugs for 24 h, once a week, and every 2-3 weeks, drug dose was increased by 2 nM increments until 30 nM drug resistance was reached. To select non-MDR resistant cell lines, cells were evolved in the presence of verapamil, an inhibitor of P-glycoprotein (P-gp) drug efflux pump that produces a MDR phenotype. Resistance was maintained by acute 24 h exposure to the corresponding drug and verapamil once a month. All cells used for the experiments were grown logarithmically in drug-free medium at least a week before experiments.
(§2) Cytoxicity assays was assessed using a modified MTT assay (Mosmann, 1983). MTT (3-(4,5-dimethylthiazol-2-yl)-2,5-diphenyl tetrazolium bromide, MTT) was purchased from Sigma (St. Louis, Mo., USA). For each drug treatment, triplicate wells were seeded (5.0×10^3/well) and conditioned overnight. Drugs were prepared by serial dilution with RPMI media and added to the corresponding wells. After 48 h, the MTT assay was performed. Percentage survival was calculated as the OD560 of the treated sample divided by the OD560 of the untreated control cell line. Cell lines were tested with cisplatin to test for non-MDR phenotype.
To select a moderately sensitive cell line for drug-resistance, a panel of susceptible tumor cell lines was screened for CA-4 cytotoxicity. Table 1 depicts the average in vitro cytotoxicity (IC50) values for three independent experiments with each experiment run in triplicate.

[1] = tested on: C30 (H460 cells selected at 30 nM CA-4); experiment: In vitro cytotoxicity assay of resistant cell line C30; assay type: cell-based, human; settings: for C30 Resistance Factor: C30 cells relative to parental H460; for IC50: C30 cells (H460 selected at 30 nM CA-4), MTT after 48 h
Description: as §1, with “The human non-small cell lung carcinoma (NSCLC), NCI-H460, was selected for resistance based on significant cytotoxicity.” left out
as §2
(§3) C30, P30, and V30 cell lines represent H460 parental cells selected at 30 nM CA-4, paclitaxel, and vinblastine, respectively. […] Cisplatin, an anti-cancer agent with a non-tubulin-binding mode of action was assayed against the cell lines to test for […].

[2] = tested on: P30 (H460 cells selected at 30 nM paclitaxel); experiment: In vitro cytotoxicity assay of resistant cell line P30; assay type: cell-based, human; settings: for IC50: P30 cells (H460 selected at 30 nM paclitaxel), MTT after 48 h; for P30 Resistance Factor: P30 cells relative to parental H460
Description: as §1, with “The human non-small cell lung carcinoma (NSCLC), NCI-H460, was selected for resistance based on significant cytotoxicity.” left out
as §2, §3

[3] = tested on: V30 (H460 cells selected at 30 nM vinblastine); experiment: In vitro cytotoxicity assay of resistant cell line V30; assay type: cell-based, human; settings: for IC50: V30 cells (H460 selected at 30 nM vinblastine), MTT after 48 h; for V30 Resistance Factor: V30 cells relative to parental H460
Description: as §1, with “The human non-small cell lung carcinoma (NSCLC), NCI-H460, was selected for resistance based on significant cytotoxicity.” left out
as §2, §3

CEM = experiment: In vitro cytotoxicity (modified MTT) assay, CEM; assay type: cell-based; settings: Acute Lymphoblastic Leukemia, MTT after 48 h, average of three independent experiments in triplicate
Description: as §1, with “All cells used for the experiments were grown logarithmically in drug-free medium at least a week before experiments.” left out
(§4) Cytoxicity assays was assessed using a modified MTT assay (Mosmann, 1983). […] Percentage survival was calculated as the OD560 of the treated sample divided by the OD560 of the untreated control cell line. […]

MOLT4 = experiment: In vitro cytotoxicity (modified MTT) assay, MOLT4; assay type: cell-based; settings: MOLT4, Acute Lymphoblastic Leukemia; MTT after 48 h; average of three independent experiments in triplicate
Description: as §1, with “All cells used for the experiments were grown logarithmically in drug-free medium at least a week before experiments.” left out
as §4

HT29 = experiment: In vitro cytotoxicity (modified MTT) assay, HT29; assay type: cell-based; settings: HT29, Colorectal Adenocarcinoma; MTT after 48 h; average of three independent experiments in triplicate
Description: as §1, with “All cells used for the experiments were grown logarithmically in drug-free medium at least a week before experiments.” left out
as §4

MCF7 = experiment: In vitro cytotoxicity (modified MTT) assay, MCF7; assay type: cell-based; settings: MCF7, Mammary Gland Adenocarcinoma; MTT after 48 h; average of three independent experiments in triplicate
Description: as §1, with “All cells used for the experiments were grown logarithmically in drug-free medium at least a week before experiments.” left out
as §4

BXPC3 = experiment: In vitro cytotoxicity (modified MTT) assay, BXPC3; assay type: cell-based; settings: BXPC3, Pancreatic Adenocarcinoma; MTT after 48 h; average of three independent experiments in triplicate
Description: as §1, with “All cells used for the experiments were grown logarithmically in drug-free medium at least a week before experiments.” left out
as §4

DU145 = experiment: In vitro cytotoxicity (modified MTT) assay, DU145; assay type: cell-based; settings: DU145, Prostate Carcinoma; MTT after 48 h; average of three independent experiments in triplicate
Description: as §1, with “All cells used for the experiments were grown logarithmically in drug-free medium at least a week before experiments.” left out
as §4

[4] = Homo sapiens, NCI-H460, H460 parental cells, Table 2, read-out: H460 wild-type IC50
[5] = H460 parental cells, Table 2, read-out: H460 wild-type IC50

Row | SMILES | IC50 (NCI-H460; [4]) [nM] | C30 Resistance Factor [1] | IC50 ([1]; Homo sapiens, NCI-H460) [nM] | IC50 ([2]; Homo sapiens, NCI-H460) [nM] | P30 Resistance Factor [2] | IC50 ([3]; Homo sapiens, NCI-H460) [nM] | V30 Resistance Factor [3] | IC50 (NCI-H460; [5]) [nM] | IC50 [1] [nM] | IC50 [2] [nM] | IC50 [3] [nM] | further results
1 | CC(=O)O[C@H]1C(=O)[C@@]2(C)[C@H]([C@H](OC(=O)c3ccccc3)[C@]3(O)C[C@H](OC(=O)[C@H](O)[C@@H](NC(=O)c4ccccc4)c4ccccc4)C(C)=C1C3(C)C)[C@]1(OC(C)=O)CO[C@@H]1C[C@@H]2O [Paclitaxel] | 8.1 ± 0.4 | 9.9 ± 0.6 | 80 ± 2 | 77 ± 4.9 | 9.6 ± 1.0 | 87 ± 3.6 | 10.8 ± 1.0 | – | – | – | – | C30 Resistance Factor ([1]; listed as paclitaxel): tenfold; P30 Resistance Factor ([2]; listed as paclitaxel): tenfold; V30 Resistance Factor ([3]; listed as paclitaxel): eleven fold; also recorded: tenfold
2 | COc1ccc(/C=C\c2cc(OC)c(OC)c(OC)c2)cc1O [CA-4, Combretastatin A-4] | – | – | – | – | – | – | – | 7 ± 0.6 | 19 | 8.5 ± 0.2 | 9.2 ± 0.6 | IC50 (CEM): 0.25 nM; IC50 (MOLT4): 4.1 nM; IC50 (HT29): 55100 nM; IC50 (MCF7): 165000 nM; IC50 (NCI-H460; H460, Non-Small Cell Lung Carcinoma, Table 1 screen, average of three independent experiments in triplicate, read-out: IC50): 7.3 nM; IC50 (BXPC3): 57000 nM; IC50 (DU145): 7.7 nM
3 | N.N.[Cl][Pt][Cl] [Cisplatin] | – | – | – | – | – | – | – | 20 ± 2.6 | 16.7 ± 3.2 | 25.3 ± 3.1 | 21.7 ± 0.6 | –
4 | CC[C@]1(O)C[C@@H]2CN(CCc3c([nH]c4ccccc34)[C@@](C(=O)OC)(c3cc4c(cc3OC)N(C)[C@H]3[C@@](O)(C(=O)OC)[C@H](OC(C)=O)[C@]5(CC)C=CCN6CC[C@]43[C@@H]65)C2)C1 [Vinblastine] | 5.9 ± 0.1 | 1.0 ± 0.0 | 6 ± 0.3 | 15.7 ± 4.2 | 2.7 ± 0.7 | 26.3 ± 2.1 | 4.5 ± 0.4 | – | – | – | – | C30 Resistance Factor ([1]; listed as vinblastine): negligibly resistant; P30 Resistance Factor ([2]; listed as vinblastine): threefold; V30 Resistance Factor ([3]; listed as vinblastine): fivefold
